Experimental data from the NIST ThermoML archive (doi:10.1021/acs.jced.9b00509).

Experiment: mean ionic activity coefficient (dimensionless); mn = molality of the nth substance listed, in mol/kg
Details: 278.15 K, 100 kPa, Liquid, cell potential measurements

[Cl-].[Na+] [sodium chloride] + O
Details	mean ionic activity coefficient
m1 = 0.0101	0.895
m1 = 0.05	0.833
m1 = 0.0999	0.771
m1 = 0.1999	0.741
m1 = 0.5	0.642
m1 = 0.9999	0.619
m1 = 1.999	0.628
m1 = 2.999	0.654
